What was measured:
[1] = system: pig right coronary artery; assay: in vitro Ca-antagonism (high K+ induced 45Ca-influx); format: cell-based; conditions: Sus scrofa, K+ 75 mM
Protocol: 2. in vitro Ca-antagonism
A strip of pig right coronary artery was depolarized with high K^+ (75 mM) for 30 minutes to induce voltage dependent ^45 Ca-influx. The extracellular ^45 Ca was chelated by adding EGTA and removed by washing, then the strip was lysed at 100° C. ^45 Ca in this lysate was measured as intracellular ^45 Ca by a scintillation counter. The concentration of the test compound was 10^-7, 10^-6, 10^-5 M, and applied until depolarization by K^+ was completed. Ratio of inhibition at various concentrations of the test compounds for increasing the intracellular ^45 Ca by K^+ was determined. The compound with high inhibition ratio has strong Ca-antagonism.

[2] = system: Brain microsomal fractions; assay: in vitro Anti-lipid peroxidation effect (TBAR production, Fe3+-ADP/NADPH); format: biochemical, rat (SD strain, male)
Protocol: 1. in vitro Anti-lipid peroxidation effect
Brain microsomal fractions were prepared from male rats of SD strain, and a portion (0.2 mg protein) was incubated at 37° C. for 15 minutes with a mixture of Fe^3+ (0.1 mM)--ADP (0.5 mM) in the presence or absence of the test compound, in final volume of 1 ml of 10 mM HEPES, 150 mM KCl, 0.2 mM NADPH, pH 7.4. After incubation, 1.5 ml of TCA-TBA-HCl reagent (16.7% trichloroacetic acid, 0.4% thiobarbituric acid, 0.278N hydrochloric acid) was added and the reaction mixture was heated in a boiling water for 15 minutes. After cooling in ice-bath, the reaction mixture was centrifuged, and the absorbance of the supernatant at 535 nm was measured. The amount of thiobarbituric acid reactive substance (TBAR) was obtained by calculation using an extinction coefficient of 1.56×10^5 […]. […] The results are shown in Table 1A for compounds of the formulas IA, IB, and IC, respectively. The compounds with highest inhibition rate have the greatest anti-lipid peroxidation effect.

Structure (SMILES) | inhibition at 10 µM [1] [%] | Anti-Lipid Peroxidation (% inhibition) 10 μM [2] [%] | Anti-Lipid Peroxidation (% inhibition) 50 μM [2] [%]
COc1cc(C(C)C)ccc(CN2C(C)CN(C(c3ccc(F)cc3)c3ccc(F)cc3)CC2C)c1=O (stereo not drawn) [Compound 21C, 7-[4-(4,4'-difluorobenzhydryl)-2,6-dimethylpiperazino-1-methyl]-4-isopropyl-2-methoxy-2,4,6-cycloheptatrien-1-one] | 42 | 47.8 | 89.9
CC(C)c1ccc(CN2CCN(C(c3ccc(F)cc3)c3ccc(F)cc3)CC2)c(=O)c(NCCc2ccccn2)c1 [Compound 11C, 7-[4-(4,4'-difluorobenzhydryl)piperazino-1-methyl]-4-isopropyl-2-[N-2-(2-pyridyl)ethylamino]-2,4,6-cycloheptatrien-1-one] | 62 | 32.2 | 89.8
CNCCNc1cc(C(C)C)ccc(CN2CCN(C(c3ccc(F)cc3)c3ccc(F)cc3)CC2)c1=O [Compound 3C, 7-[4-(4,4'-difluorobenzhydryl)piperazino-1-methyl]-4-isopropyl-2-(N-2-methylaminoethylamino)-2,4,6-cycloheptatrien-1-one] | 49 | 88.0 | 91.6
CC(C)c1ccc(CN2CCN(C(c3ccc(F)cc3)c3ccc(F)cc3)CC2)c(=O)c(OCc2ccccc2)c1 [Compound 15A, 2-benzyloxy-7-[4-(4,4'-difluorobenzhydryl)piperazino-1-methyl]-4-isopropyl-2,4,6-cycloheptatrien-1-one] | 20 | 22.4 | 29.0
CCNc1cccnc1N1CCN(c2cc(C(C)C)ccc(CN3CCN(C(c4ccc(F)cc4)c4ccc(F)cc4)CC3)c2=O)CC1 [Compound 20C, 7-[4-(4,4'-difluorobenzhydryl)piperazino-1-methyl]-2-[4-(3-ethylamino-2-pyridyl)piperazino]-4-isopropyl-2,4,6-cycloheptatrien-1-one] | 30 | 91.6 | 93.8
CC(C)c1ccc(CN2CCN(C(c3ccc(F)cc3)c3ccc(F)cc3)CC2)c(=O)c(N(C)CCN(C)C)c1 [Compound 5C, 7-[4-(4,4'-difluorobenzhydryl)piperazino-1-methyl]-2-(N-2-dimethylaminoethyl-N-methylamino)-4-isopropyl-2,4,6-cycloheptatrien-1-one] | 94 | 32.2 | 90.6
CC(C)c1ccc(CN2CCN(C(c3ccc(F)cc3)c3ccc(F)cc3)CC2)c(=O)c(N2CCOCC2)c1 [Compound 18C, 7-[4-(4,4'-difluorobenzhydryl)piperazino-1-methyl]-4-isopropyl-2-morpholino-2,4,6-cycloheptatrien-1-one] | 84 | 26.7 | 41.2
CC(C)c1ccc(CN2CCN(C(c3ccc(F)cc3)c3ccc(F)cc3)CC2)c(=O)c(NCCCN(C)C)c1 [Compound 2C, 7-[4-(4,4'-difluorobenzhydryl)piperazino-1-methyl]-2-(N-3-dimethylaminopropylamino)-4-isopropyl-2,4,6-cycloheptatrien-1-one] | 63 | 29.6 | 90.8
COC(=O)CNc1cc(C(C)C)ccc(CN2CCN(C(c3ccc(F)cc3)c3ccc(F)cc3)CC2)c1=O [Compound 15C, methyl 2-{N-7-[4-(4,4'-difluorobenzhydryl)piperazino-1-methyl]-4-isopropyl-1-oxo-2,4,6-cycloheptatrien-2-ylamino}acetate] | 92 | 38.6 | 79.8
COc1cc(C(C)C)ccc(C(C)N2CCN(C(c3ccccc3)c3ccc(Cl)cc3)CC2)c1=O (stereo not drawn) [Compound 4A, 7-{1-[4-(4-chlorobenzhydryl)]piperazinomethyl-α-methyl-}-4-isopropyl-2-methoxy-2,4,6-cycloheptatrien-1-one] | 45 | 25.8 | 75.1
CC(C)c1ccc(CN2CCN(C(c3ccc(F)cc3)c3ccc(F)cc3)CC2)c(=O)c(NCCN)c1 [Compound 4C, 2-(N-2-aminoethylamino)-7-[4-(4,4'-difluorobenzhydryl)piperazino-1-methyl]-4-isopropyl-2,4,6-cycloheptatrien-1-one] | 54 | 45.2 | 92.9
COc1ccc(C(c2ccc(Cl)cc2)N2CCN(Cc3ccc(C(C)C)cc(OC)c3=O)CC2)cc1 (stereo not drawn) [Compound 10A, 7-[4-(4-chloro-4'-methoxybenzhydryl)piperazin-1-methyl]-4-isopropyl-2-methoxy-2,4,6-cycloheptatrien-1-one] | 53 | 24.0 | 81.6
CC(C)c1ccc(CN2CCN(C(c3ccc(F)cc3)c3ccc(F)cc3)CC2)c(=O)c(NCCO)c1 [Compound 13C, 7-[4-(4,4'-difluorobenzhydryl)piperazino-1-methyl]-2-(N-2-hydroxyethylamino)-4-isopropyl-2,4,6-cycloheptatrien-1-one] | 90 | 36.9 | 89.5
COc1cc(C(C)C)ccc(CN2CCN(C(c3ccccc3)c3ccccc3)CC2)c1=O [Compound 6A, 7-(4-benzhydrylpiperazino-1-methyl)-4-isopropyl-2-methoxy-2,4,6-cycloheptatrien-1-one] | 100 | 15.9 | 63.2
CCOC(=O)CCNc1cc(C(C)C)ccc(CN2CCN(C(c3ccc(F)cc3)c3ccc(F)cc3)CC2)c1=O [Compound 16C, ethyl 3-{N-7-[4-(4,4'-difluorobenzhydryl)piperazino-1-methyl]-4-isopropyl-1-oxo-2,4,6-cycloheptatrien-2-ylamino}propionate] | 47 | 29.1 | 58.0
COc1cc(C(C)C)ccc(CN2CCN(C(c3ccc(C(F)(F)F)cc3)c3ccc(C(F)(F)F)cc3)CC2)c1=O [Compound 8A, 7-{4-[4,4'-di(trifluoromethyl)benzhydryl]piperazino-1-methyl}-4-isopropyl-2-methoxy-2,4,6-cycloheptatrien-1-one] | 27 | 32.3 | 51.8
CC(C)c1ccc(CN2CCN(C(c3ccc(F)cc3)c3ccc(F)cc3)CC2)c(=O)c(N2CCNCC2)c1 [Compound 19C, 7-[4-(4,4'-difluorobenzhydryl)piperazino-1-methyl]-4-isopropyl-2-(1-piperazino)-2,4,6-cycloheptatrien-1-one] | 62 | 30.1 | 89.1
CC(C)c1ccc(CN2CCN(C(c3ccc(F)cc3)c3ccc(F)cc3)CC2)c(=O)c(NCCNc2ncccn2)c1 [Compound 10C, 7-[4-(4,4'-difluorobenzhydryl)piperazino-1-methyl]-4-isopropyl-2-[N-2-(2-pyrimidylamino)ethylamino]-2,4,6-cycloheptatrien-1-one] | 65 | 46.3 | 92.5
COc1cc(C(C)C)ccc(CN2CCCN(C(c3ccc(F)cc3)c3ccc(F)cc3)CC2)c1=O [Compound 23C, 7-[4-(4,4'-difluorobenzhydryl)hexahydro-1H-1,4-diazepin-1-ylmethyl]-4-isopropyl-2-methoxy-2,4,6-cycloheptatrien-1-one] | 86 | 21.6 | 90.7
COc1ccc(CCOc2cc(C(C)C)ccc(CN3CCN(C(c4ccc(F)cc4)c4ccc(F)cc4)CC3)c2=O)cc1OC [Compound 16A, 7-[4-(4,4'-difluorobenzhydryl)piperazino-1-methyl]-2-[2-(3,4-dimethoxyphenyl)ethoxy]-4-isopropyl-2,4,6-cycloheptatrien-1-one] | 52 | 19.1 | 19.1
CCCCOc1cc(C(C)C)ccc(CN2CCN(C(c3ccc(F)cc3)c3ccc(F)cc3)CC2)c1=O [Compound 13A, 2-butoxy-7-[4-(4,4'-difluorobenzhydryl)piperazino-1-methyl]-4-isopropyl-2,4,6-cycloheptatrien-1-one] | 38 | 23.1 | 27.4
